Here are results for eleven compounds from PMC5546478 (Oncotarget, 2017).

SMILES strings stand for the structures. “Also recorded” adds a separate entry of the source. Counter-ions that a name gives are not always drawn. Like-named read-outs stand apart in the source and are kept apart here. Where only a bound is given, the exact number is not on record here.

For orientation: IC50 means the concentration at which inhibition is half-maximal.

One data set deals with T1, WT IDH1 (Homo sapiens, UniProt O75874).
T1 construct: made in house
Kind of data set: In vitro enzyme inhibition assay, WT IDH1 (NADPH production). The data set is classed as biochemical. The following applies: for IC50 for enzyme activities, WT / IC50: n.p = no clear inhibitory detected; for IC50: read-out: IC50 for enzyme activities, WT. The method, then: For inhibition assay, firstly, triplicate samples of compounds were incubated with the protein for 5 min.

The test system of the next data set is mutant IDH1. The settings on record: cited from earlier work.
The test system of a further data set is HT1080 cells. Kind of data set: Flow cytometric analysis for apoptosis (Annexin V/PI). The data set is classed as cell-based, human. The settings on record: control 2%. The method, then: Then the cells were harvested, washed twice with ice-cold PBS, and mixed in 100 μL of 1 × binding buffer (10 mM HEPES/NaOH, pH 7.4, 140 mM NaCl, 2.5 mM CaCl2). After culturing for 15 min at room temperature in Annexin-V/PI (Nanjing KeyGen Biotech. Inc.) double staining liquid, the cells were examined by flow cytometry (BD Biosciences, FACSCalibur).

The subject of data set [1] is H3K9me3 in HT1080 cells. Nature of the data set: Histone methylation H3K9me3 by western blot. It is filed as cell-based, human. The following applies: 48 hours. (In general: In western blotting, separated proteins are transferred to a membrane and probed.)
Protocol: The harvested cells were lysed with lysis buffer (50 mM Tris-HCl (pH 7.4), 150 mM NaCl, 1 mM EDTA, 1 mM EGTA, 10 mg/mL aprotinin, 10 mg/mL leupeptin, 5 mM phenylmethanesulfonyluoride (PMSF), 1 mM dithiolthreitol (DTT) containing 1% Triton X-100). Insoluble debris was removed by centrifugation at 13000 rpm for 20 minutes, and the content of protein was determined using Bradford reagent (Bio-Rad, USA). Lysate protein (20-40 μg) was subjected to 12% SDS-PAGE and electrophoretically transferred to polyvinylidene difluoride membranes (PVDF) (Millipore, USA). The membranes were blocked with 5% non-fat milk for 1 h and then incubated with the respective specific primary antibody at 4 °C overnight. Protein bands were visualized using an enhanced chemiluminescence reagent (ECL Plus) (GE Healthcare, USA) after hybridization with a HRP conjugated secondary antibody. Band density was quantified using the Image J software program (NIH).
Data set [2] deals with H3K9me3 in HT1080 cells. Kind of data set: Immunocytochemical staining of H3K9me3. The data set is classed as cell-based, human.
Protocol: We seeded the cells at 2×10^5 per well (Lab-Tek II chamber slide, Nalgen Nunc International, Naperville, IL). 48 hours after incubation, cells were fixed with PBS (−) containing 4% paraformaldehyde for 15 minutes, and rendered permeable with PBS (−) containing 0.1% Triton X-100 at 4 °C for 2.5 minutes. Subsequently, the cells were covered with 3% bovine serum albumin in PBS (−) at 4 °C for 12 hours to block nonspecific hybridization followed by incubation with an H3K9me3 antibody diluted at 1:100. After washing with PBS (−), the cells were stained by an Alexa 594-conjugated anti-mouse secondary antibody (Molecular Probes, Eugene, OR) diluted at 1: 1,000. Nuclei were counterstained with (DAPI). Fluorescent images were obtained under a TCS SP2 AOBS microscope (Leica, Tokyo, Japan).
A further data set deals with HT1080 xenograft. Kind of data set: Antitumor efficacy in HT1080 xenograft mouse model. It is filed as in vivo, CB-17/Icr-scid mice. The settings on record: for Tumor weight: after 2 weeks' treatment, control 2.32 ± 0.93 g; for Tumor volume: model 1879.61±244.35. An excerpt: In the xenograft model, HT1080 cells were inoculated subcutaneously into the right flank of male CB-17/Icr-scid mice.

Data set [3] has as its system mutant IDH1 (D-2HG production). Nature of the data set: D-2HG concentrations in tumors and serum of HT1080 xenograft mice. It is filed as in vivo, CB-17/Icr-scid mice. The settings on record: for percentage inhibition of D-2HG production in tumor tissue: normalized to control group; for R-2HG level in serum: model 5.97 ±2.58; for R-2HG level in tumor tissue: model 364.01 ±118.43.

Data set [4] deals with H3K9me3 in HT1080 tumor tissue. Nature of the data set: Immunohistochemistry for H3K9me3 in xenograft tumor tissues. The settings on record: clomifene treated groups (50, 100 mg/kg) vs vehicle. The data set is classed as in vivo, CB-17/Icr-scid mice.
Protocol: We then examined D-2HG concentrations in tumors and serum.
HT1080 cells were inoculated subcutaneously (2 × 10^6 cells) into the right flank of each mouse in the three groups. Treatment was started after seven days of cells injection. […] For the vehicle group, 200 μL normal saline was administered to each mouse every day by i.g. The duration of the animal study was 22 days for HT1080 cells. The tumor volume was calculated from measurements of 3 diameters of the individual tumor based on the following formula: tumor volume (mm^3) = (length × width × height × 0.52). The mice were monitored until tumors reached 1 cm^3 total volume, at which time the mice were euthanized and the tumors were extracted. The tumors were dissected and sent for immunohistochemical analysis and western blot analysis.
For data set [5] the following is noted: 50 and 100 mg/kg per day via gavage.
Protocol: After 2 weeks’ treatment, all mice were then scarified and the average tumor weights were calculated.
CB-17/Icr-scid mice (male, 4 weeks old) were purchased from HFK Bioscience CO., LTD (Beijing, China). The animals were maintained under ‘specific pathogen-free’ conditions according to the guidelines established by Research Animal Resources, Laboratory Animal Center, Huazhong University of Science and Technology (Wuhan, China). […] HT1080 cells were inoculated subcutaneously (2 × 10^6 cells) into the right flank of each mouse in the three groups. Treatment was started after seven days of cells injection. […] For the vehicle group, 200 μL normal saline was administered to each mouse every day by i.g. The duration of the animal study was 22 days for HT1080 cells. The tumor volume was calculated from measurements of 3 diameters of the individual tumor based on the following formula: tumor volume (mm^3) = (length × width × height × 0.52). The mice were monitored until tumors reached 1 cm^3 total volume, at which time the mice were euthanized and the tumors were extracted.

T1 sequence (O75874 whole entry): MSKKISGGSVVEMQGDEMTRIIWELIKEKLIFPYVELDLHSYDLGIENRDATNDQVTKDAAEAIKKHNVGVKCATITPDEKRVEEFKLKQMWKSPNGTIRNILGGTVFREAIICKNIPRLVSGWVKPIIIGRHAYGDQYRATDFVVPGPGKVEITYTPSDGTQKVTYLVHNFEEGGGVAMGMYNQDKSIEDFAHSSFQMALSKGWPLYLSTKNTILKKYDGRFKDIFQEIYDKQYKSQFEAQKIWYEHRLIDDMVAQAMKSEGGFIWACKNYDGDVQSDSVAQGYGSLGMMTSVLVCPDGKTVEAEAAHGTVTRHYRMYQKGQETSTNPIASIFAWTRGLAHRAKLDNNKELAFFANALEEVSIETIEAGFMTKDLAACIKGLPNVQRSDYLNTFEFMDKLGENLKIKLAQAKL

For `CCCNCC(O)COc1ccccc1C(=O)CCc1ccccc1` (centres unmarked) [Propafenone Hydrochloride], on WT IDH1, the “IC50 for enzyme activities, WT” value is listed as “n.p”.

As for `Cc1ccccc1C(C(=O)NC1CCCCC1)N(C(=O)Cn1ccnc1C)c1cccc(F)c1` (centres unmarked) [AGI-5198], the 50% inhibitory concentration (IC50) on WT IDH1 was greater than 200 µM. Also, in the data set on mutant IDH1 (mutant IDH1), the “kinetic mechanism with respect to NADPH” value was “uncompetitive” and the “kinetic mechanism with respect to α-KG” value is “competitive inhibitor”.

Consider `CO[C@@]1(NC(=O)Cc2cccs2)C(=O)N2C(C(=O)O)=C(COC(N)=O)CS[C@@H]21` [Cefoxitin sodium], for which the IC50 on WT IDH1 was greater than 200 µM.

As to `CN(C)c1cc(NC(=O)CNC(C)(C)C)c(O)c2c1C[C@H]1C[C@H]3[C@H](N(C)C)C(O)=C(C(N)=O)C(=O)[C@@]3(O)C(O)=C1C2=O` [Tigecycline], the “IC50 for enzyme activities, WT” value at WT IDH1 is “n.p”.

As for `C=C1c2cccc(O)c2C(=O)C2=C(O)[C@]3(O)C(=O)C(C(N)=O)=C(O)[C@@H](N(C)C)[C@@H]3[C@@H](O)[C@H]12` [Metacycline], the “IC50 for enzyme activities, WT” value against WT IDH1 is recorded as “n.p”.

On to `CC(C)(C)CC(C)(C)c1cc(Cn2ccnc2)c(O)c(Cn2ccnc2)c1` [2,6-bis (1H-imidazol-1-ylmethyl)-4-(2,4,4-trimethylpentan-2-yl) phenol], for which the “manner of inhibition of mutant IDH1” value with mutant IDH1 (ligand of crystal structure 4UMX, binds allosteric site) was “non-competitive and allosteric inhibitor”.

Take `OC(Cn1cncn1)(Cn1cncn1)c1ccc(F)cc1F` [Fluconazole]: the “IC50 for enzyme activities, WT” value against WT IDH1 is “n.p”.

Take `CN(C)[C@@H]1C(O)=C(C(N)=O)C(=O)[C@@]2(O)C(O)=C3C(=O)c4c(O)ccc(Cl)c4[C@@H](O)[C@H]3C[C@@H]12` [Demeclocycline]: the “IC50 for enzyme activities, WT” value on WT IDH1 was “n.p^e”.

As to `COc1ccc(-c2ccc3cc(C(=O)O)ccc3c2)cc1C12CC3CC(CC(C3)C1)C2` [Adapalene], on WT IDH1, the “IC50 for enzyme activities, WT” value is “n.p”.

Consider `CCN(CC)CCOc1ccc(C(=C(Cl)c2ccccc2)c2ccccc2)cc1` [Clomifene], for which the “Effect on WT IDH1” value at WT IDH1 (at 200 μM) was “did not obviously alter”. Also, the IC50 on WT IDH1 was greater than 200 µM. In addition, the apoptotic death with HT1080 cells (10 μM) is 12.88%. Further, the apoptotic death in the data set on HT1080 cells (20 μM) stood at 23.61%. Further, in the data set with H3K9me3 in HT1080 cells [1], the “level of histone methylation (H3K9me3)” value is listed as “significantly reduced; also recorded: markedly decrease”. Besides, the “mutant IDH1-mediated H3K9me3” value with H3K9me3 in HT1080 cells [2] was “substantially and dose-dependently decreased”. Also, in the data set with HT1080 xenograft (50 mg/kg per day via gavage), the “percentage inhibition of tumor volume” value worked out at 51.71%, the “percentage inhibition of tumor weight” value turned out to be 38.36%, the Tumor weight is recorded as 1.43 ± 0.42 g and the Tumor volume is given as 907.73±176.63 mm3. For the same compound, the “percentage inhibition of tumor weight” value in the data set with HT1080 xenograft (50 mg/kg per day via gavage, listed as clomifene) is recorded as “about 60%”. For the same compound, in the data set with HT1080 xenograft (100 mg/kg per day via gavage), the “percentage inhibition of tumor volume” value was determined as 65.80%, the “percentage inhibition of tumor weight” value was found to be 59.48%, the Tumor weight was found to be 0.94 ± 0.61 g and the Tumor volume was determined as 642.91±127.02 mm3. In addition, in the data set with HT1080 xenograft (oral 100 mg/kg and 50 mg/kg per day), the “tumor growth of HT1080-bearing mice” value was “significantly suppressed”. Further, in data set [3] (50 mg/kg), the “percentage inhibition of R-2HG in serum” value worked out at 51.59%, the “percentage inhibition of D-2HG production in tumor tissue” value came out at 23.81%, the “R-2HG level in serum” value is 2.89 ± 1.06 µM and the “R-2HG level in tumor tissue” value came out at 277.34 ± 78.03 µg/g. In data set [3] (100 mg/kg), the “percentage inhibition of D-2HG production in tumor tissue” value came out at 57.38%, the “R-2HG level in serum” value is 1.47 ± 1.38 µM and the “R-2HG level in tumor tissue” value was found to be 155.12 ± 74.34 µg/g. Besides, the “expressions of H3K9me3 in tumor tissues” value in data set [4] is listed as “substantially reduced”. The “effect on mouse body weight” value in data set [5] is “no effect”. In addition, the “effect on mouse body weight” value in data set [5] (listed as clomifene) is listed as “no obvious side effects on animals’ growth”.

Turning to `O=C(NC[C@H]1CN(c2ccc(N3CCOCC3=O)cc2)C(=O)O1)c1ccc(Cl)s1` [Rivaroxaban], on WT IDH1, the 50% inhibitory concentration (IC50) is greater than 200 µM.
